The source of these data is US20220046923A1, “HERBICIDAL CINNOLINIUM COMPOUNDS” (SYNGENTA CROP PROTECTION AG, priority 2018, published 2022).

SMILES strings stand for the structures.

Common to all, as to experiment: Post-emergence efficacy, glasshouse spray test
Holding throughout (type): in vivo

In assay [1] the test system is Amaranthus palmeri (AMAPA). Particulars: evaluated after 13 days; for pest or weed control at 500 g/ha / pest or weed control at 1000 g/ha: Amaranthus palmeri, post-emergence, 312 h, read-out: Control of weed species AMAPA after post-emergence application (100=total damage to plant; 0=no damage to plant); for pest or weed control at 500 g/ha: application rate 500 g/Ha. The essentials: (§1)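 Compound formulated in acetone/IF50 and diluted into 0.25% or 1% Empicol ESC70 with 1% ammonium sulphate was sprayed on glasshouse seedlings 14 days after sowing. Growth continued at 24/16 °C, 14 h light, 65% humidity with twice-daily watering; damage (0–100) scored on day 13.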

Assay [2] has as its system Chenopodium album (CHEAL). The settings on record: evaluated after 13 days; for pest or weed control at 500 g/ha / pest or weed control at 1000 g/ha: Chenopodium album, post-emergence, 312 h, read-out: Control of weed species CHEAL after post-emergence application (100=total damage to plant; 0=no damage to plant); for pest or weed control at 500 g/ha: application rate 500 g/Ha. A digest of the protocol:
as §1

For assay [3], the system named is Digitaria sanguinalis (DIGSA). The settings on record: evaluated after 13 days; for pest or weed control at 500 g/ha / pest or weed control at 1000 g/ha: Digitaria sanguinalis, post-emergence, 312 h, read-out: Control of weed species DIGSA after post-emergence application (100=total damage to plant; 0=no damage to plant); for pest or weed control at 500 g/ha: application rate 500 g/Ha. The essentials:
as §1

Assay [4] deals with Echinochloa crus-galli (ECHCG). Particulars: evaluated after 13 days; for pest or weed control at 500 g/ha / pest or weed control at 1000 g/ha: Echinochloa crus-galli, post-emergence, 312 h, read-out: Control of weed species ECHCG after post-emergence application (100=total damage to plant; 0=no damage to plant); for pest or weed control at 500 g/ha: application rate 500 g/Ha. A digest of the protocol:
as §1

Assay [5] deals with Eleusine indica (ELEIN). Particulars: evaluated after 13 days; for pest or weed control at 500 g/ha / pest or weed control at 1000 g/ha: Eleusine indica, post-emergence, 312 h, read-out: Control of weed species ELEIN after post-emergence application (100=total damage to plant; 0=no damage to plant); for pest or weed control at 500 g/ha: application rate 500 g/Ha. The essentials: as §1

Assay [6] concerns Euphorbia heterophylla (EPHHL). Particulars: evaluated after 13 days; for pest or weed control at 500 g/ha / pest or weed control at 1000 g/ha: Euphorbia heterophylla, post-emergence, 312 h, read-out: Control of weed species EPHHL after post-emergence application (100=total damage to plant; 0=no damage to plant); for pest or weed control at 500 g/ha: application rate 500 g/Ha. A digest of the protocol: as §1

Assay [7] relates to Ipomoea hederacea (IPOHE). Particulars: evaluated after 13 days; for pest or weed control at 500 g/ha / pest or weed control at 1000 g/ha: Ipomoea hederacea, post-emergence, 312 h, read-out: Control of weed species IPOHE after post-emergence application (100=total damage to plant; 0=no damage to plant); for pest or weed control at 500 g/ha: application rate 500 g/Ha. A digest of the protocol: as §1

For assay [8], the system named is Lolium perenne (LOLPE). Particulars: evaluated after 13 days; for pest or weed control at 500 g/ha / pest or weed control at 1000 g/ha: Lolium perenne, post-emergence, 312 h, read-out: Control of weed species LOLPE after post-emergence application (100=total damage to plant; 0=no damage to plant); for pest or weed control at 500 g/ha: application rate 500 g/Ha. A digest of the protocol:
as §1

Assay [9] concerns Setaria faberi (SETFA). The settings on record: evaluated after 13 days; for pest or weed control at 500 g/ha / pest or weed control at 1000 g/ha: Setaria faberi, post-emergence, 312 h, read-out: Control of weed species SETFA after post-emergence application (100=total damage to plant; 0=no damage to plant); for pest or weed control at 500 g/ha: application rate 500 g/Ha. A digest of the protocol: as §1

As for `O=S(=O)([O-])CCC[n+]1cc(C(Cl)(Cl)Cl)c2ccccc2n1` [Compound A40], the pest or weed control at 500 g/ha in assay [1] stood at 50%; in assay [2], 50%; in assay [3], 10%; in assay [4], 30%; in assay [5], 20%; in assay [6], 40%. Moreover, the pest or weed control at 500 g/ha in [7] was found to be 50%; in assay [8], 0%; in [9], 0%.

Consider `O=S(=O)([O-])NCC[n+]1ccc2ccccc2n1` [Compound A41], for which the pest or weed control at 1000 g/ha was found to be 100% in assay [1] (application rate 1000 g/Ha); 100% in assay [2] (application rate 1000 g/Ha); 80% in assay [3] (application rate 1000 g/Ha); 30% in [4] (application rate 1000 g/Ha); 100% in assay [5] (application rate 1000 g/Ha); 100% in assay [6] (application rate 1000 g/Ha). Moreover, the figures for the pest or weed control at 1000 g/ha in assay [7] (application rate 1000 g/Ha), in assay [8] (application rate 1000 g/Ha) and in [9] (application rate 1000 g/Ha) were 80%, 70% and 90%, respectively.

Turning to `O=S(=O)(O)CC[n+]1ccc2cccc(I)c2n1` [Compound A42, 2-(8-iodocinnolin-2-ium-2-yl)ethanesulfonic acid 2,2,2-trifluoroacetate], the pest or weed control at 1000 g/ha in assay [1] (application rate 1000 g/Ha) stood at 90%; in assay [2] (application rate 1000 g/Ha), 50%; in assay [3] (application rate 1000 g/Ha), 40%; in [4] (application rate 1000 g/Ha), 20%; in [5] (application rate 1000 g/Ha) it was 80%; in [6] (application rate 1000 g/Ha), 50%. The figures for the pest or weed control at 1000 g/ha in [7] (application rate 1000 g/Ha), in [8] (application rate 1000 g/Ha) and in assay [9] (application rate 1000 g/Ha) were 70%, 10% and 50%, respectively.

Consider `CC(CC[n+]1ccc2ccccc2n1)S(=O)(=O)[O-]` (stereo not drawn) [Compound A43, 4-cinnolin-2-ium-2-ylbutane-2-sulfonate], for which the pest or weed control at 1000 g/ha in assay [1] (application rate 1000 g/Ha) turned out to be 100%; in assay [2] (application rate 1000 g/Ha), 100%; in [3] (application rate 1000 g/Ha), 80%; in [4] (application rate 1000 g/Ha), 70%; in assay [5] (application rate 1000 g/Ha) it was 100%; in [6] (application rate 1000 g/Ha), 100%. Further, the pest or weed control at 1000 g/ha in [7] (application rate 1000 g/Ha) is 80%; in [8] (application rate 1000 g/Ha) it was 40%; in assay [9] (application rate 1000 g/Ha), 70%.

Regarding `CSc1c[n+](CCS(=O)(=O)O)nc2ccccc12.O=C([O-])C(F)(F)F` [Compound A44], in [1] (application rate 1000 g/Ha), the “Control of weed species AMAPA after post-emergence application (100=total damage to plant; 0=no damage to plant)” value is recorded as 30. The “Control of weed species CHEAL after post-emergence application (100=total damage to plant; 0=no damage to plant)” value in assay [2] (application rate 1000 g/Ha) is 30. In addition, the “Control of weed species DIGSA after post-emergence application (100=total damage to plant; 0=no damage to plant)” value in assay [3] (application rate 1000 g/Ha) is listed as 30. The “Control of weed species ECHCG after post-emergence application (100=total damage to plant; 0=no damage to plant)” value in assay [4] (application rate 1000 g/Ha) turned out to be 10. In assay [5] (application rate 1000 g/Ha), the “Control of weed species ELEIN after post-emergence application (100=total damage to plant; 0=no damage to plant)” value was found to be 70. Further, the “Control of weed species EPHHL after post-emergence application (100=total damage to plant; 0=no damage to plant)” value in [6] (application rate 1000 g/Ha) was 90. Moreover, in assay [7] (application rate 1000 g/Ha), the “Control of weed species IPOHE after post-emergence application (100=total damage to plant; 0=no damage to plant)” value is on record as 20. Also, in assay [8] (application rate 1000 g/Ha), the “Control of weed species LOLPE after post-emergence application (100=total damage to plant; 0=no damage to plant)” value stood at 0. The “Control of weed species SETFA after post-emergence application (100=total damage to plant; 0=no damage to plant)” value in assay [9] (application rate 1000 g/Ha) came to 30.

As to `C[C@@H](C[n+]1ccc2ccccc2n1)NS(=O)(=O)[O-]` [Compound A45, N-[(1S)-2-cinnolin-2-ium-2-yl-1-methyl-ethyl]sulfamate], the pest or weed control at 1000 g/ha in [1] (application rate 1000 g/Ha) was found to be 100%; in assay [2] (application rate 1000 g/Ha), 80%; in [3] (application rate 1000 g/Ha) it was 80%; in assay [4] (application rate 1000 g/Ha), 40%; in [5] (application rate 1000 g/Ha), 100%; in [6] (application rate 1000 g/Ha), 100%. Besides, the results for the pest or weed control at 1000 g/ha in [7] (application rate 1000 g/Ha), in [8] (application rate 1000 g/Ha) and in assay [9] (application rate 1000 g/Ha) were 60%, 60% and 80%, respectively.

Turning to `C[C@H](C[n+]1ccc2ccccc2n1)NS(=O)(=O)[O-]` [Compound A46], the pest or weed control at 1000 g/ha was determined as 100% in [1] (application rate 1000 g/Ha); 70% in assay [2] (application rate 1000 g/Ha); 70% in assay [3] (application rate 1000 g/Ha); 30% in assay [4] (application rate 1000 g/Ha); 90% in assay [5] (application rate 1000 g/Ha); 100% in assay [6] (application rate 1000 g/Ha). Also, the results for the pest or weed control at 1000 g/ha in assay [7] (application rate 1000 g/Ha), in assay [8] (application rate 1000 g/Ha) and in assay [9] (application rate 1000 g/Ha) were 70%, 40% and 60%, respectively.

For the compound `O=S(=O)([O-])N1CCC[C@H]1C[n+]1ccc2ccccc2n1` [Compound A47], the pest or weed control at 1000 g/ha in assay [1] (application rate 1000 g/Ha) was found to be 100%; in [2] (application rate 1000 g/Ha) it was 60%; in assay [3] (application rate 1000 g/Ha) it was 90%; in assay [4] (application rate 1000 g/Ha) it was 30%; in assay [5] (application rate 1000 g/Ha), 90%; in assay [6] (application rate 1000 g/Ha), 60%. In addition, the results for the pest or weed control at 1000 g/ha in assay [7] (application rate 1000 g/Ha), in assay [8] (application rate 1000 g/Ha) and in assay [9] (application rate 1000 g/Ha) were 20%, 10% and 40%, respectively.

Consider `O=S(=O)([O-])C[n+]1ccc2ccccc2n1` [Compound A48, cinnolin-2-ium-2-ylmethanesulfonate], for which the pest or weed control at 1000 g/ha in assay [1] (application rate 1000 g/Ha) came to 100%; in assay [2] (application rate 1000 g/Ha), 80%; in assay [3] (application rate 1000 g/Ha), 60%; in assay [4] (application rate 1000 g/Ha) it was 40%; in assay [5] (application rate 1000 g/Ha), 90%; in assay [6] (application rate 1000 g/Ha) it was 100%. In addition, the pest or weed control at 1000 g/ha was 100% in [7] (application rate 1000 g/Ha), 70% in assay [8] (application rate 1000 g/Ha) and 70% in assay [9] (application rate 1000 g/Ha).

Regarding `C[C@H](CNS(=O)(=O)[O-])[n+]1ccc2ccccc2n1` [Compound A49], the pest or weed control at 1000 g/ha was 100% in [1] (application rate 1000 g/Ha); 90% in assay [2] (application rate 1000 g/Ha); 70% in assay [3] (application rate 1000 g/Ha); 60% in assay [4] (application rate 1000 g/Ha); 90% in assay [5] (application rate 1000 g/Ha); 90% in [6] (application rate 1000 g/Ha). For the same compound, the values for the pest or weed control at 1000 g/ha in assay [7] (application rate 1000 g/Ha), in [8] (application rate 1000 g/Ha) and in [9] (application rate 1000 g/Ha) were 80%, 50% and 60%, respectively.

In the case of `C[C@@H](CNS(=O)(=O)[O-])[n+]1ccc2ccccc2n1` [Compound A50], the pest or weed control at 500 g/ha in [1] was 80%; in assay [2] it was 70%; in assay [3] it was 30%; in [4] it was 20%; in assay [5] it was 20%; in assay [6], 60%. The figures for the pest or weed control at 500 g/ha in [7], in assay [8] and in assay [9] were 40%, 20% and 20%, respectively.
